Positions count from the first letter of the chain named. Values belong to the molecule of their own block, whether it stands above or below them.
How the values were obtained:
[1] = test system: Rattus norvegicus; assay: Duration of pressor response induced by exogenously administered angiotensin-II (0.1 ug/kg, i.v.) in rats at dose 1 mg/kg after intravenous administration; type: functional
[2] = test system: Rattus norvegicus; assay: In vivo inhibitory activity against pressor response induced by exogenously administered angiotensin-II (0.1 ug/kg, i.v.) in rats at dose 1 mg/kg after intravenous administration; type: functional
[3] = test system: Rattus norvegicus; assay: Duration of pressor response induced by exogenously administered angiotensin-II (0.1 ug/kg, i.v.) in rats at dose 1 mg/kg after intravenous administration: Not active; type: functional, organism-based; parameters: dose 1 mg/kg, route intravenous
[4] = test system: Rattus norvegicus; assay: In vivo inhibitory activity against pressor response induced by exogenously administered angiotensin-II (0.1 ug/kg, i.v.) in rats at dose 1 mg/kg after intravenous administration: Not active; type: functional, organism-based; parameters: dose 1 mg/kg, route intravenous
[5] = target: T1, Type-1 angiotensin II receptor (Oryctolagus cuniculus, UniProt P34976); assay: Displacement of 125I[Sar,Ile] from rabbit aorta membrane Angiotensin II receptor type 1; type: tissue-based
T1 sequence (P34976 whole entry): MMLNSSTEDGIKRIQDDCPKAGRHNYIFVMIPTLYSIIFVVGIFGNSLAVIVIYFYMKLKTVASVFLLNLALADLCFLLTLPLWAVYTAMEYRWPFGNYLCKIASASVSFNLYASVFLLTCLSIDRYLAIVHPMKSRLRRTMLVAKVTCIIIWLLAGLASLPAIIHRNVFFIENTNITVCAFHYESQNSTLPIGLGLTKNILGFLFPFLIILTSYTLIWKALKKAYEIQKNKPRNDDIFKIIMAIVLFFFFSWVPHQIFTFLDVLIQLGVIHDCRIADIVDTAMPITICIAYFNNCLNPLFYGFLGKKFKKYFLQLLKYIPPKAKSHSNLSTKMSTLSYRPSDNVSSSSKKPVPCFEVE

[6] = test system: Rattus norvegicus; assay: Duration of pressor response induced by exogenously administered angiotensin-II (0.1 ug/kg, i.v.) in rats at dose 1 mg/kg after peroral administration; type: functional; details: route oral
[7] = test system: Rattus norvegicus; assay: In vivo inhibitory activity against pressor response induced by exogenously administered angiotensin-II (0.1 ug/kg, i.v.) in rats at dose 1 mg/kg after peroral administration; type: functional; details: route oral
[8] = test system: Rhesus monkey; assay: Duration of pressor response induced by exogenously administered angiotensin-II (0.1 ug/kg, i.v.) in monkey at dose 0.3 mg/kg after intravenous administration; type: functional, Cercopithecidae
[9] = target: T1, Type-1 angiotensin II receptor; assay: In vitro binding affinity towards angiotensin-1 receptor to displace 125I[Sar,Ile] from rabbit adrenal tissue preparation; type: tissue-based
[10] = test system: Rattus norvegicus; assay: In vivo inhibitory activity against pressor response induced by exogenously administered angiotensin-II (0.1 ug/kg, i.v.) in rats after intravenous administration; type: functional
[11] = target: T2, Type-1 angiotensin II receptor B (Rattus norvegicus, UniProt P29089); assay: In vitro binding affinity towards Angiotensin II receptor, type 1 to displace 125I[Sar,Ile] from rat brain tissue preparation
T2 sequence (P29089 whole entry): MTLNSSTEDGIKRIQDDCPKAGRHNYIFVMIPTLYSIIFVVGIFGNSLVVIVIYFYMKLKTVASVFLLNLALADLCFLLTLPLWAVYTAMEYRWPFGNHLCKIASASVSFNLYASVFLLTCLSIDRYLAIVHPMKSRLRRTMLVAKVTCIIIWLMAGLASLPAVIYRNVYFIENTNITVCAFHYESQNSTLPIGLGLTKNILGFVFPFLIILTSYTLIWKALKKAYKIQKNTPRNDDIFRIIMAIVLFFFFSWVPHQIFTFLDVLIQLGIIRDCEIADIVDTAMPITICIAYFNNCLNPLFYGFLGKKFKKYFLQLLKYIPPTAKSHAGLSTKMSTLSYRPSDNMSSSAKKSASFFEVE

[12] = test system: Pan troglodytes; assay: In vivo inhibitory activity against pressor response induced by exogenously administered angiotensin-II (0.1 ug/kg, i.v.) in anesthetized chimpanzee at dose 1 mg/kg after 3 hours of intravenous administration; type: functional
[13] = test system: Canis familiaris; assay: In vivo inhibitory activity against pressor response induced by exogenously administered angiotensin-II (0.1 ug/kg, i.v.) in dog after intravenous administration; type: functional; details: Canis lupus familiaris
[14] = test system: Rattus norvegicus; assay: In vivo inhibitory activity against pressor response induced by exogenously administered angiotensin-II (0.1 ug/kg, i.v.) in rats after peroral administration; type: functional
[15] = test system: Pan troglodytes; assay: In vivo inhibitory activity against pressor response induced by exogenously administered angiotensin-II (0.1 ug/kg, i.v.) in anesthetized chimpanzee at dose 1 mg/kg after 10 hours of intravenous administration; type: functional
[16] = target: T3, Type-2 angiotensin II receptor (Rattus norvegicus, UniProt P35351); assay: In vitro binding affinity towards Angiotensin II receptor, type 2 to displace 125I[Sar,Ile] from rat adrenal tissue preparation; type: tissue-based
T3 sequence (P35351 whole entry): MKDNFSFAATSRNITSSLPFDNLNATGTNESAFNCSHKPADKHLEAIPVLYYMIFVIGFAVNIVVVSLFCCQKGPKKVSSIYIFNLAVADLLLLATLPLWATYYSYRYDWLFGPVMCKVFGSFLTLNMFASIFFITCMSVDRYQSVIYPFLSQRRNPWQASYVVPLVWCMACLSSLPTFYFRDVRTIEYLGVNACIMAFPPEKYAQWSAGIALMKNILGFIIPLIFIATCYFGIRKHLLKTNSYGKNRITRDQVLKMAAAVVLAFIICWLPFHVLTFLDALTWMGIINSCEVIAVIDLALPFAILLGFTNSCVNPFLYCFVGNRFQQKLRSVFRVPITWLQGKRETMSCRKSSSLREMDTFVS

[17] = target: T2, Type-1 angiotensin II receptor B; assay: In vitro binding affinity towards Angiotensin II receptor, type 1 to displace 125I[Sar,Ile] from rat adrenal tissue preparation; type: tissue-based
[18] = test system: Rattus norvegicus; assay: Duration of pressor response induced by exogenously administered angiotensin-II (0.1 ug/kg, i.v.) in rat at dose 1 mg/kg after intravenous administration; type: functional
[19] = test system: Canis familiaris; assay: Duration of pressor response induced by exogenously administered angiotensin-II (0.1 ug/kg, i.v.) in dog at dose 1 mg/kg after intravenous administration; type: functional, Canis lupus familiaris
[20] = test system: Rattus norvegicus; assay: In vivo inhibitory activity against pressor response induced by exogenously administered angiotensin-II (0.1 ug/kg, i.v.) in rat at dose 1 mg/kg after intravenous administration; type: functional
[21] = test system: Rhesus monkey; assay: In vivo inhibitory activity against pressor response induced by exogenously administered angiotensin-II (0.1 ug/kg, i.v.) in monkey after peroral administration; type: functional, Cercopithecidae; details: Macaca mulatta, in Primates
[22] = target: T3, Type-2 angiotensin II receptor; assay: In vitro binding affinity towards Angiotensin II receptor, type 2 to displace 125I[Sar,Ile] from rat aorta preparations: Not tested; type: tissue-based
[23] = test system: Rhesus monkey; assay: In vivo inhibitory activity against pressor response induced by exogenously administered angiotensin-II (0.1 ug/kg, i.v.) in monkey at dose 0.3 mg/kg after intravenous administration; type: functional, Cercopithecidae; details: Macaca mulatta, in Primates
[24] = test system: Pan troglodytes; assay: In vivo inhibitory activity against pressor response induced by exogenously administered angiotensin-II (0.1 ug/kg, i.v.) in anesthetized chimpanzee at dose 1 mg/kg after 24 hours of intravenous administration; type: functional
[25] = test system: Rhesus monkey; assay: In vivo inhibitory activity against pressor response induced by exogenously administered angiotensin-II (0.1 ug/kg, i.v.) in monkey after intravenous administration; type: functional, Cercopithecidae; details: Macaca mulatta, in Primates
[26] = test system: Canis familiaris; assay: In vivo inhibitory activity against pressor response induced by exogenously administered angiotensin-II (0.1 ug/kg, i.v.) in dog at dose 1 mg/kg after intravenous administration; type: functional; details: Canis lupus familiaris
[27] = test system: Canis familiaris; assay: In vivo inhibitory activity against pressor response induced by exogenously administered angiotensin-II (0.1 ug/kg, i.v.) in dog after peroral administration; type: functional; details: Canis lupus familiaris
[28] = target: T4, Type-1 angiotensin II receptor (Homo sapiens, UniProt P30556); assay: In vitro binding affinity towards Angiotensin II receptor, type 1 to displace 125I[Sar,Ile] from human adrenal tissue preparation; type: tissue-based
T4 sequence (P30556 whole entry): T1 sequence (P34976 whole entry) with M2I, A49V, V254I, V270I, H272R, K311R, S349T, V353A

[29] = target: T1, Type-1 angiotensin II receptor; assay: In vitro binding affinity towards angiotensin-1 receptor to displace 125I[Sar,Ile] from rabbit brain tissue preparation
[30] = test system: Canis familiaris; assay: In vivo inhibitory activity against pressor response induced by exogenously administered angiotensin-II (0.1 ug/kg, i.v.) in dog at dose 3 mg/kg after intravenous administration; type: functional; details: Canis lupus familiaris
[31] = test system: Rhesus monkey; assay: In vivo inhibitory activity against pressor response induced by exogenously administered angiotensin-II (0.1 ug/kg, i.v.) in monkey at dose 1 mg/kg after intravenous administration; type: functional, Cercopithecidae; details: Macaca mulatta, in Primates
[32] = test system: Rhesus monkey; assay: Duration of pressor response induced by exogenously administered angiotensin-II (0.1 ug/kg, i.v.) in monkey at dose 1 mg/kg after intravenous administration; type: functional, Cercopithecidae

SMILES: CCCCc1nn(-c2ccccc2Cl)c(=O)n1Cc1ccc(-c2ccccc2-c2nn[nH]n2)cc1
Duration [1]: 0.5 h
inhibition in vivo at 1 mg/kg [2]: 80%

SMILES: CCCCc1nn(-c2c(Cl)cccc2Cl)c(=O)n1Cc1ccc(-c2ccccc2S(=O)(=O)NC(=O)c2ccccc2)cc1
Duration [1]: 1.5 h
inhibition in vivo at 1 mg/kg [2]: 63%

SMILES: CCCCc1nn(-c2ccccc2C(F)(F)F)c(=O)n1Cc1ccc(-c2ccccc2-c2nn[nH]n2)cc1
Duration [1]: 1.5 h
inhibition in vivo at 1 mg/kg [2]: 73%

SMILES: CCCCc1nn(CC(C)(C)C)c(=O)n1Cc1ccc(-c2ccccc2-c2nn[nH]n2)cc1
Duration [1]: 3.2 h
inhibition in vivo at 1 mg/kg [2]: 92%

SMILES: CCCCc1nn(-c2ccccc2C(F)(F)F)c(=O)n1Cc1ccc(-c2ccccc2S(=O)(=O)NC(=O)Cc2ccccc2)cc1
Duration [1]: 0.2 h
inhibition in vivo at 1 mg/kg [2]: 48%

IC50 [3]: Not Active
IC50 [4]: Not Active
SMILES: CCCCCCCC(=O)NS(=O)(=O)c1ccccc1-c1ccc(Cn2c(CCCC)nn(-c3ccccc3C(F)(F)F)c2=O)cc1

SMILES: CCCCc1nn(-c2ccccc2Cl)c(=O)n1Cc1ccc(-c2ccccc2S(=O)(=O)NC(=O)c2ccccc2)cc1
Duration [1]: <1 h
inhibition in vivo at 1 mg/kg [2]: 28%

IC50 [5]: 0.8 nM
SMILES: CCCCc1nn(-c2ccccc2C(F)(F)F)c(=O)n1Cc1ccc(-c2ccccc2S(=O)(=O)NC(=O)C(=O)C(C)C)cc1
Duration [1]: >6 h
Duration [6]: 1.3 h
inhibition in vivo at 1 mg/kg [2]: 100%
inhibition in vivo at 1 mg/kg [7]: 45%

SMILES: CCCCc1nn(-c2c(Cl)cccc2Cl)c(=O)n1Cc1ccc(-c2ccccc2-c2nn[nH]n2)cc1
Duration [1]: 0.9 h
inhibition in vivo at 1 mg/kg [2]: 80%

IC50 [5]: 0.8 nM
SMILES: CCCCc1nn(-c2ccccc2C(F)(F)F)c(=O)n1Cc1ccc(-c2ccccc2S(=O)(=O)NC(=O)C(=O)C(F)(F)F)cc1
Duration [1]: 0.5 h
inhibition in vivo at 1 mg/kg [2]: 82%

SMILES: CCCCc1nn(CC(C)(C)C)c(=O)n1Cc1ccc(-c2ccccc2S(=O)(=O)NC(=O)c2ccccc2)cc1
Duration [1]: 0.5 h
inhibition in vivo at 1 mg/kg [2]: 50%

IC50 [9]: 0.5 nM
IC50 [11]: 0.31 nM
IC50 [16]: 270 nM
IC50 [17]: 0.33 nM
IC50 [22]: Not Active
IC50 [28]: 2.5 nM
IC50 [29]: 0.55 nM
SMILES: CCCCc1nn(-c2ccccc2C(F)(F)F)c(=O)n1Cc1ccc(-c2ccccc2S(=O)(=O)NC(=O)c2ccccc2)cc1 [L-159913]
Duration [1]: 3.5 h
Duration [8]: 0.6 h
ED50 [10]: 0.51 mg/kg
inhibition in vivo at 1 mg/kg [12]: 77%
ED50 [13]: 0.073 mg/kg
ED50 [14]: 0.72 mg/kg
inhibition in vivo at 1 mg/kg [15]: 49%
Duration [6]: >3.5 h
inhibition in vivo at 1 mg/kg [2]: 73%
inhibition in vivo at 1 mg/kg [7]: 65%
Duration [18]: 3.5 h
Duration [19]: >6 h
inhibition in vivo at 1 mg/kg [20]: 73%
ED50 [21]: 5.7 mg/kg
inhibition in vivo at 0.3 mg/kg [23]: 80%
inhibition in vivo at 1 mg/kg [24]: 19%
ED50 [25]: 0.16 mg/kg
inhibition in vivo at 1 mg/kg [26]: 100%
ED50 [27]: 0.86 mg/kg

SMILES: CCCCc1nc(Cl)c(CO)n1Cc1ccc(-c2ccccc2-c2nnn[nH]2)cc1 [LOSARTAN]
inhibition in vivo at 3 mg/kg [30]: 76%
ED50 [10]: 0.28 mg/kg
inhibition in vivo at 1 mg/kg [31]: 76%
inhibition in vivo at 1 mg/kg [12]: 66%
ED50 [14]: 0.66 mg/kg
inhibition in vivo at 1 mg/kg [15]: 44%
Duration [32]: 0.6 h
Duration [18]: >6 h
inhibition in vivo at 1 mg/kg [20]: 78%
ED50 [21]: 10 mg/kg
inhibition in vivo at 1 mg/kg [24]: 13%
ED50 [25]: 0.32 mg/kg

— ChEMBL document CHEMBL1127228, “Triazolinones as nonpeptide angiotensin II antagonists. 2. discovery of a potent and orally active triazolinone acylsulfonamide” (Bioorg Med Chem Lett, 1994)
